Test results taken from PubChem BioAssay AID248 (DTP/NCI, 2004).
Several values for one entry are separate records, joined by “and”; a condition that tells them apart may be missing. Identical values can stand only once. Toxic doses and inconclusive results are not listed. No stated cut-off is given here; in the data, active means T/C of 150% or more; inactive means T/C below 125%.

System: L1210 leukemia ip in BDF1 mice, survival T/C
Experiment: NCI In Vivo Anticancer Drug Screen. Data for tumor model L1210 Leukemia (intraperitoneal) in B6D2F1 (BDF1) mice
Conditions: endpoint: mean survival time, higher = longer survival
Method in brief: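 Tumor was transplanted into mice, which were then dosed with test compound or vehicle alone. Survival was recorded for each group, and the treated figure was expressed relative to the control figure.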

[1] = dose: 100.0 mg/kg/injection, schedule: Q01DX001 (ip), vehicle: other
[2] = dose: 200.0 mg/kg/injection, schedule: Q01DX001 (ip), vehicle: other
[3] = dose: 400.0 mg/kg/injection, schedule: Q01DX001 (ip), vehicle: other
[4] = dose: 100.0 mg/kg/injection, schedule: Q04DX003 (ip), vehicle: other
[5] = dose: 200.0 mg/kg/injection, schedule: Q04DX003 (ip), vehicle: other
[6] = dose: 400.0 mg/kg/injection, schedule: Q04DX003 (ip), vehicle: other
[7] = dose: 100.0 mg/kg/injection, schedule: Q04DX002 (ip), vehicle: Klucel (hydroxypropylcellulose) (HPC)
[8] = dose: 200.0 mg/kg/injection, schedule: Q04DX002 (ip), vehicle: Klucel (hydroxypropylcellulose) (HPC)
[9] = dose: 400.0 mg/kg/injection, schedule: Q04DX002 (ip), vehicle: Klucel (hydroxypropylcellulose) (HPC)
[10] = dose: 100.0 mg/kg/injection, schedule: Q01DX001 (ip), vehicle: carboxymethylcellulose (CMC)
[11] = dose: 200.0 mg/kg/injection, schedule: Q01DX001 (ip), vehicle: carboxymethylcellulose (CMC)
[12] = dose: 400.0 mg/kg/injection, schedule: Q01DX001 (ip), vehicle: carboxymethylcellulose (CMC)
[13] = dose: 100.0 mg/kg/injection, schedule: Q04DX003 (ip), vehicle: saline with Tween-80
[14] = dose: 200.0 mg/kg/injection, schedule: Q04DX003 (ip), vehicle: saline with Tween-80
[15] = dose: 50.0 mg/kg/injection, schedule: Q04DX003 (ip), vehicle: saline with Tween-80
[16] = dose: 100.0 mg/kg/injection, schedule: Q01DX009 (ip), vehicle: Klucel (hydroxypropylcellulose) (HPC)
[17] = dose: 100.0 mg/kg/injection, schedule: Q01DX009 (ip), vehicle: saline with Tween-80
[18] = dose: 200.0 mg/kg/injection, schedule: Q01DX009 (ip), vehicle: saline with Tween-80
[19] = dose: 400.0 mg/kg/injection, schedule: Q01DX009 (ip), vehicle: saline with Tween-80

Measured: T/C

CCCCCCCC[Si](c1ccc(C)cc1)(c1ccc(C)cc1)c1ccc(C)cc1
inactive: [1] 97 % of control | [2] 95 % of control | [3] 97 % of control

CCOC(=O)C1C2C=CC=CC(=O)C21 (centres undefined)
inactive: dose: 100.0 mg/kg/injection, schedule: Q01DX009 (ip), vehicle: other 102 % of control | [4] 95 % of control | dose: 200.0 mg/kg/injection, schedule: Q01DX009 (ip), vehicle: other 95 % of control | [5] 95 % of control | [6] 105 % of control

Cc1cnc2c(N)nc(N)nc2n1
inactive: [7] 110 % of control | [8] 98 % of control | [9] 94 % of control

S=c1[nH]c2cc3ccccc3cc2[nH]1
inactive: dose: 75.0 mg/kg/injection, schedule: Q01DX001 (ip), vehicle: saline 98 % of control | dose: 150.0 mg/kg/injection, schedule: Q01DX001 (ip), vehicle: saline 101 % of control | dose: 300.0 mg/kg/injection, schedule: Q01DX001 (ip), vehicle: saline 92 % of control

CC(=O)c1cccc(O)c1
inactive: dose: 100.0 mg/kg/injection, schedule: Q04DX002 (ip), vehicle: saline with Tween-80 98 % of control | dose: 200.0 mg/kg/injection, schedule: Q04DX002 (ip), vehicle: saline with Tween-80 95 % of control | dose: 400.0 mg/kg/injection, schedule: Q04DX002 (ip), vehicle: saline with Tween-80 102 % of control

[N-]=[N+]=NCC1OC(n2cnc3c(NC=O)ncnc32)CC1C(=O)O (centres undefined)
inactive: dose: 50.0 mg/kg/injection, schedule: Q01DX001 (ip), vehicle: carboxymethylcellulose (CMC) 109 % of control | [10] 101 % of control | [11] 114 % of control | [12] 95 % of control

CCCCCC(C)O[Si](C)Cc1ccccc1 (centres undefined)
inactive: [13] 95 % of control | [14] 97 % of control | dose: 400.0 mg/kg/injection, schedule: Q04DX003 (ip), vehicle: saline with Tween-80 90 % of control

NNCC(F)(F)C(F)(F)C(F)(F)C(F)(F)C(F)(F)C(F)(F)C(F)(F)C(F)F
inactive: dose: 100.0 mg/kg/injection, schedule: Q01DX009 (ip), vehicle: DMSO 91 % of control | dose: 100.0 mg/kg/injection, schedule: Q04DX003 (ip), vehicle: DMSO 89 % of control | dose: 200.0 mg/kg/injection, schedule: Q01DX009 (ip), vehicle: DMSO 92 % of control | dose: 200.0 mg/kg/injection, schedule: Q04DX003 (ip), vehicle: DMSO 88 % of control | dose: 400.0 mg/kg/injection, schedule: Q04DX003 (ip), vehicle: DMSO 94 % of control

Nc1c(I)cc2c(c1I)Cc1cc([N+](=O)[O-])ccc1-2
inactive: [10] 106 % of control | [11] 103 % of control | [12] 103 % of control

O=[N+]([O-])c1ccc(NC2CCCCC2)c2c1no[n+]2[O-]
inactive: [15] 100 % of control | [13] 100 % of control | [14] 118 % of control

Cn1nnc(N/N=C/c2ccccc2)n1
inactive: dose: 6.25 mg/kg/injection, schedule: Q04DX003 (ip), vehicle: saline with Tween-80 100 % of control | dose: 12.5 mg/kg/injection, schedule: Q04DX003 (ip), vehicle: saline with Tween-80 107 % of control | dose: 25.0 mg/kg/injection, schedule: Q01DX009 (ip), vehicle: saline with Tween-80 94 % of control | dose: 25.0 mg/kg/injection, schedule: Q04DX003 (ip), vehicle: saline with Tween-80 94 % of control and 109 % of control | [15] 95 % of control | [13] 88 % of control

CCCCCCCCCCCCCCCCCCNC(=S)N/N=C/c1ccc(Cl)cc1Cl
inactive: dose: 50.0 mg/kg/injection, schedule: Q04DX003 (ip), vehicle: other 91 % of control | [1] 95 % of control | [4] 96 % of control | [2] 86 % of control and 92 % of control | [5] 93 % of control

CCCOC(=O)c1ccc(OC(=O)NC)cc1
inactive: [10] 92 % of control | dose: 100.0 mg/kg/injection, schedule: Q01DX009 (ip), vehicle: carboxymethylcellulose (CMC) 101 % of control and 106 % of control | dose: 100.0 mg/kg/injection, schedule: Q04DX002 (ip), vehicle: carboxymethylcellulose (CMC) 102 % of control and 112 % of control | dose: 100.0 mg/kg/injection, schedule: Q04DX003 (ip), vehicle: carboxymethylcellulose (CMC) 102 % of control | [11] 102 % of control | dose: 200.0 mg/kg/injection, schedule: Q01DX009 (ip), vehicle: carboxymethylcellulose (CMC) 109 % of control and 88 % of control | dose: 200.0 mg/kg/injection, schedule: Q04DX002 (ip), vehicle: carboxymethylcellulose (CMC) 97 % of control and 102 % of control | dose: 200.0 mg/kg/injection, schedule: Q04DX003 (ip), vehicle: carboxymethylcellulose (CMC) 91 % of control | [12] 96 % of control | dose: 400.0 mg/kg/injection, schedule: Q04DX002 (ip), vehicle: carboxymethylcellulose (CMC) 94 % of control and 102 % of control

c1ccc(Nc2nc3ccccc3o2)cc1
inactive: dose: 100.0 mg/kg/injection, schedule: Q01DX001 (ip), vehicle: Klucel (hydroxypropylcellulose) (HPC) 93 % of control | [16] 92 % of control | dose: 200.0 mg/kg/injection, schedule: Q01DX001 (ip), vehicle: Klucel (hydroxypropylcellulose) (HPC) 89 % of control | dose: 200.0 mg/kg/injection, schedule: Q01DX009 (ip), vehicle: Klucel (hydroxypropylcellulose) (HPC) 95 % of control | dose: 400.0 mg/kg/injection, schedule: Q01DX001 (ip), vehicle: Klucel (hydroxypropylcellulose) (HPC) 86 % of control | dose: 400.0 mg/kg/injection, schedule: Q01DX009 (ip), vehicle: Klucel (hydroxypropylcellulose) (HPC) 94 % of control

CCCCCCCCCCCCCCCC[As](=O)(O)O
inactive: dose: 100.0 mg/kg/injection, schedule: Q04DX003 (ip), vehicle: Klucel (hydroxypropylcellulose) (HPC) 121 % of control | dose: 200.0 mg/kg/injection, schedule: Q04DX003 (ip), vehicle: Klucel (hydroxypropylcellulose) (HPC) 93 % of control | dose: 400.0 mg/kg/injection, schedule: Q04DX003 (ip), vehicle: Klucel (hydroxypropylcellulose) (HPC) 90 % of control

O=c1ccc2ccccc2n1Cc1ccc2ccccc2n1
inactive: dose: 12.5 mg/kg/injection, schedule: Q01DX001 (ip), vehicle: acetone 100 % of control | dose: 12.5 mg/kg/injection, schedule: Q04DX003 (ip), vehicle: saline 96 % of control | dose: 25.0 mg/kg/injection, schedule: Q01DX001 (ip), vehicle: acetone 92 % of control | dose: 25.0 mg/kg/injection, schedule: Q04DX003 (ip), vehicle: saline 91 % of control | dose: 50.0 mg/kg/injection, schedule: Q01DX001 (ip), vehicle: acetone 95 % of control | dose: 50.0 mg/kg/injection, schedule: Q04DX003 (ip), vehicle: saline 96 % of control | dose: 75.0 mg/kg/injection, schedule: Q04DX003 (ip), vehicle: saline 95 % of control | [1] 97 % of control | [17] 104 % of control | [4] 109 % of control | dose: 115.0 mg/kg/injection, schedule: Q04DX003 (ip), vehicle: saline 90 % of control | [2] 100 % of control | [18] 95 % of control | [5] 104 % of control | [3] 94 % of control | [19] 101 % of control | [6] 104 % of control

CCOC(=O)NC(CCN(C)C)(c1cccc2ccccc12)C(C)C (centres undefined)
inactive: dose: 50.0 mg/kg/injection, schedule: Q04DX002 (ip), vehicle: Klucel (hydroxypropylcellulose) (HPC) 100 % of control | [16] 101 % of control | [7] 100 % of control

CCOC1=NN(c2ccccc2)C(=O)C1
inactive: [17] 104 % of control | [18] 101 % of control | [19] 97 % of control

Nc1ncnc(N)c1NC(=O)c1ccc(Cl)cc1
inactive: dose: 25.0 mg/kg/injection, schedule: Q01DX001 (ip), vehicle: saline with Tween-80 107 % of control | dose: 50.0 mg/kg/injection, schedule: Q01DX001 (ip), vehicle: saline with Tween-80 104 % of control | dose: 100.0 mg/kg/injection, schedule: Q01DX001 (ip), vehicle: saline with Tween-80 120 % of control

CCOc1ccc(N=Nc2ccc(N)cc2N)cc1
inactive: [7] 96 % of control | [8] 101 % of control | [9] 96 % of control
